Article PMC9230136 (Pharmaceutics, 2022)
Read-outs that look alike come from different tables or passages of the source.

Tests used:
[1] = test system: A549, MDA-MB-231, HeLa, HT-29 and Jurkat cancer cell lines; assay: Antiproliferative activity over the panel of cancer cell lines; type: cell-based, human; conditions: for fold reduction in potency (vs 7y): MDA-MB-231 and HT-29 cells
Experimental: (§1) Colon adenocarcinoma (HT-29) and T-cell leukemia (Jurkat) cells were grown in RPMI-1640 medium (Gibco, Milano, Italy). Promyelocytic leukemia cells (HL-60), non-small cell lung carcinoma (A549), cervix carcinoma (HeLa) and breast adenocarcinoma (MDA-MB-231) cells were grown in DMEM medium (Gibco, Milano, Italy). Both media were supplemented with 115 units/mL of penicillin G (Gibco, Milano, Italy), 115 μg/mL of streptomycin (Invitrogen, Milano, Italy) and 10% fetal bovine serum (Invitrogen, Milano, Italy). All the cell lines used were purchased from the American Type Culture Collection (ATCC, Manassas, VA, USA). Stock solutions (10 mM) of the compounds were obtained by dissolving them in DMSO.
(§2) The cells were seeded in 96-well plates at the appropriate density for each cell line. After 24 h, the cells were treated by performing serial 5-fold dilutions of the tested compounds starting from a concentration of 10 μM. All experimental conditions were tested in triplicate for statistical analysis. The plates were incubated for 72 h at 37 °C in a humidified 5% CO2 atmosphere. At the end of the incubation period, 10 μL of 100 μg/mL resazurin solution was added to each well; then, the plate was re-incubated for 3–4 h. The fluorescence of the wells in each plate was monitored using a Spark 10 M spectrophotometer (Tecan Group Ltd., Mannedorf, Switzerland) with a 535 nm excitation wavelength and a 600 nm emission wavelength.

A549 = assay: Antiproliferative assay (resazurin, 72 h); type: cell-based, human
Experimental: as §1, §2

HeLa = assay: Antiproliferative assay (resazurin, 72 h); type: cell-based, human
Experimental: as §1, §2

MDA-MB-231 = assay: Antiproliferative assay (resazurin, 72 h); type: cell-based, human
Experimental: as §1, §2

Jurkat = assay: Antiproliferative assay (resazurin, 72 h); type: cell-based, human; conditions: for IC50: mean ± SE, 72 h; for fold increase in activity relative to 7ad: Jurkat cells
Experimental: as §1, §2

HT-29 = assay: Antiproliferative assay (resazurin, 72 h); type: cell-based, human; conditions: mean ± SE, 72 h
Experimental: as §1, §2

Bovine brain tubulin [2] = assay: Inhibition of [3H]colchicine binding to tubulin; conditions: tubulin 0.5 µM, [3H]colchicine 5 µM, compound 5 µM
Experimental: (§3) Bovine brain tubulin was purified as described previously. To evaluate the effects of the compounds on tubulin assembly in vitro [35], varying concentrations were preincubated with 10 μM tubulin in 0.8 M monosodium glutamate (pH 6.6) at 30 °C and the reaction mixtures then cooled to 0 °C. After addition of GTP, the mixtures were transferred to 0 °C cuvettes in Beckman Coulter (Brea, CA, USA) DU-7400/DU-7500 recording spectrophotometers equipped with electronic temperature controllers and warmed to 30 °C, and the assembly of tubulin was observed turbidimetrically. […] Inhibition of colchicine binding to tubulin was measured as described before, except that the reaction mixtures contained 0.5 μM tubulin and 5 μM each of [^3H]colchicine and test compound. Only one DEAE-cellulose filter was used per sample, and filtration was by gravity.

Bovine brain tubulin [3] = assay: Inhibition of tubulin polymerization; type: biochemical; conditions: for IC50: tubulin at 10 μM, read-out: Tubulin Assembly IC50 ± SD
Experimental: as §3

[4] = Homo sapiens, read-out: IC50 values (2-para-substituted phenyl derivatives)
[5] = Homo sapiens, A549, Table 1, mean ± SE
[6] = Homo sapiens, HeLa, Table 1, mean ± SE
[7] = Homo sapiens, MDA-MB-231, Table 1, mean ± SE, 72 h
[8] = mean over the five cancer cell lines, read-out: mean IC50 (antiproliferative activity)
[9] = Homo sapiens, four of the five cell lines, read-out: IC50 values against four of the five cell lines
[10] = Homo sapiens, A549, Table 2, mean ± SE
[11] = Homo sapiens, HeLa, Table 2, mean ± SE
[12] = Homo sapiens, MDA-MB-231, Table 2, mean ± SE, 72 h

Compound | melting point [°C] | IC50 (A549; [5]) [nM] | IC50 (HeLa; [6]) [nM] | IC50 (MDA-MB-231; [7]) [nM] | IC50 (Jurkat; Homo sapiens, Jurkat, Table 1) [nM] | IC50 (HT-29; Homo sapiens, HT-29, Table 1) [nM] | IC50 (A549; [10]) [nM] | IC50 (HeLa; [11]) [nM] | IC50 (MDA-MB-231; [12]) [nM] | IC50 (Jurkat; Homo sapiens, Jurkat, Table 2) [nM] | IC50 (HT-29; Homo sapiens, HT-29, Table 2) [nM] | further results
COc1cc(Nc2cc(C)nc3nc(-c4ccc(C)cc4)nn23)cc(OC)c1OC [Compound 7c, 5-Methyl-2-(p-tolyl)-N-(3,4,5-trimethoxyphenyl)-[1,2,4]triazolo [1,5-a]pyrimidin-7-amine] | 248 | > 10000 | 2080 ± 190 | 2600 ± 270 | 4230 ± 1150 | > 10000 | – | – | – | – | – | IC50 [1, 4]: < 2000 nM
COc1cc(Nc2cc(C)nc3nc(NCc4ccc(F)cc4)nn23)cc(OC)c1OC [Compound 7l, N^2-(4-Fluorobenzyl)-5-methyl-N^7-(3,4,5-trimethoxyphenyl)-[1,2,4]triazolo [1,5-a]pyrimidine-2,7-diamine] | 156 to 158 | 5890 ± 480 | 1860 ± 130 | 61 ± 9 | 4680 ± 480 | 1140 ± 90 | – | – | – | – | – | fold less active than 7e ([1]; in four lines): 2-6 fold; fold more potent than 7e (MDA-MB-231; MDA-MB-231 cells): 12 fold
Cc1cc(Nc2ccc(Br)cc2)n2nc(NCCCc3ccccc3)nc2n1 [Compound 8u] | – | – | – | – | – | – | – | – | – | – | – | IC50 [1, 8]: 83 nM; Colchicine Binding % Inhibition ± SD (Bovine brain tubulin [2]): 84 ± 2%; IC50 (A549; Table 2, mean ± SE): 48 ± 10 nM; IC50 (HeLa; Table 2, mean ± SE): 22 ± 10 nM; IC50 (MDA-MB-231; Table 2, mean ± SE, 72 h): 120 ± 40 nM; IC50 (Jurkat; Table 2): 150 ± 14 nM; IC50 (HT-29; Table 2): 83 ± 20 nM; fold more potent than CA-4, tubulin polymerization (Bovine brain tubulin [3]): about 2 fold; IC50 (Bovine brain tubulin [3]): 380 ± 20 nM
COc1cc(Nc2cc(C)nc3nc(Nc4ccc(Cl)cc4)nn23)cc(OC)c1OC [Compound 7f, N2-(4-Chlorophenyl)-5-methyl-N7-(3,4,5-trimethoxyphenyl)-[1,2,4]triazolo [1,5-a]pyrimidine-2,7-diamine] | 251 | 290 ± 30 | 92 ± 10 | 470 ± 45 | > 10000 | 320 ± 40 | – | – | – | – | – | IC50 [1, 9]: < 1000 nM
COc1cc(Nc2cc(C)nc3nc(-c4ccc(F)cc4)nn23)cc(OC)c1OC [Compound 7a, 2-(4-Fluorophenyl)-5-methyl-N-(3,4,5-trimethoxyphenyl)-[1,2,4]triazolo [1,5-a]pyrimidin-7-amine] | 253 | 2710 ± 250 | 3760 ± 190 | 2250 ± 190 | 3570 ± 450 | > 10000 | – | – | – | – | – | IC50 [1, 4]: < 2000 nM
COc1ccc(CNc2nc3nc(C)cc(Nc4cc(OC)c(OC)c(OC)c4)n3n2)cc1 [Compound 7s, N^2-(4-Methoxybenzyl)-5-methyl-N^7-(3,4,5-trimethoxyphenyl)-[1,2,4]triazolo [1,5-a]pyrimidine-2,7-diamine] | 182 to 184 | 810 ± 80 | 220 ± 30 | 1270 ± 120 | 900 ± 90 | 490 ± 60 | – | – | – | – | – | IC50 ([1]; Homo sapiens, MDA-MB-231, against four of the five cell lines (not MDA-MB-231), read-out: IC50 values, range): 217 to 900 nM; IC50 [1, 9]: < 1000 nM; fold reduction in antiproliferative activity vs 7p ([1]; all five lines): 2–5 fold; IC50 (MDA-MB-231; Homo sapiens, MDA-MB-231): 1300 nM
COc1cc(Nc2cc(C)nc3nc(-c4ccc(Cl)cc4)nn23)cc(OC)c1OC [Compound 7b, 2-(4-Chlorophenyl)-5-methyl-N-(3,4,5-trimethoxyphenyl)-[1,2,4]triazolo [1,5-a]pyrimidin-7-amine] | 260 | > 10000 | 5790 ± 420 | > 10000 | > 10000 | > 10000 | – | – | – | – | – | IC50 [1, 4]: < 2000 nM
COc1cc(Nc2cc(C)nc3nc(NCc4cccc(Cl)c4)nn23)cc(OC)c1OC [Compound 7o, N^2-(3-Chlorobenzyl)-5-methyl-N^7-(3,4,5-trimethoxyphenyl)-[1,2,4]triazolo [1,5-a]pyrimidine-2,7-diamine] | 136 to 138 | 930 ± 110 | 740 ± 80 | 60 ± 7 | 4720 ± 360 | 790 ± 90 | – | – | – | – | – | IC50 [1, 9]: < 1000 nM; fold reduction in activity vs 7n ([1]; four of the five cancer cell lines): 9-24 fold; fold increase in potency vs 7n (MDA-MB-231; MDA-MB-231 cells): 3 fold
COc1cc(Nc2cc(C)nc3nc(NCc4ccc(C(F)(F)F)cc4)nn23)cc(OC)c1OC [Compound 7w, 5-Methyl-N^2-(4-(trifluoromethyl)benzyl)-N^7-(3,4,5-trimethoxyphenyl)-[1,2,4]triazolo [1,5-a]pyrimidine-2,7-diamine] | 174 to 176 | 1280 ± 130 | 520 ± 20 | 560 ± 30 | 960 ± 60 | 590 ± 260 | – | – | – | – | – | IC50 [1, 9]: < 1000 nM
C#Cc1cccc(Nc2cc(C)nc3nc(NCCCc4ccccc4)nn23)c1 [Compound 8v] | – | – | – | – | – | – | – | – | – | – | – | Colchicine Binding % Inhibition ± SD (Bovine brain tubulin [2]): 70 ± 3%; IC50 (A549; Table 2, mean ± SE): 110 ± 30 nM; IC50 (HeLa; Table 2, mean ± SE): 69 ± 10 nM; IC50 (MDA-MB-231; Table 2, mean ± SE, 72 h): 350 ± 10 nM; IC50 (Jurkat; Table 2): 160 ± 10 nM; IC50 (HT-29; Table 2): 83 ± 20 nM; IC50 (Bovine brain tubulin [3]): 430 ± 50 nM
Cc1cc(Nc2ccc(Cl)cc2)n2nc(NCCCc3ccccc3)nc2n1 [Compound 8s] | – | – | – | – | – | – | – | – | – | – | – | IC50 [1, 8]: 91 nM; Colchicine Binding % Inhibition ± SD (Bovine brain tubulin [2]): 88 ± 3%; IC50 (A549; Table 2, mean ± SE): 70 ± 10 nM; IC50 (HeLa; Table 2, mean ± SE): 48 ± 1 nM; IC50 (MDA-MB-231; Table 2, mean ± SE, 72 h): 200 ± 70 nM; IC50 (Jurkat; Table 2): 83 ± 20 nM; IC50 (HT-29; Table 2): 53 ± 1 nM; fold more potent than CA-4, tubulin polymerization (Bovine brain tubulin [3]): about 2 fold; IC50 (Bovine brain tubulin [3]): 390 ± 10 nM

Further lines, with some results ahead:

melting point [°C] | IC50 (A549; [5]) [nM] | IC50 (HeLa; [6]) [nM] | IC50 (MDA-MB-231; [7]) [nM] | IC50 (Jurkat; Homo sapiens, Jurkat, Table 1) [nM] | IC50 (HT-29; Homo sapiens, HT-29, Table 1) [nM] | IC50 (A549; [10]) [nM] | IC50 (HeLa; [11]) [nM] | IC50 (MDA-MB-231; [12]) [nM] | IC50 (Jurkat; Homo sapiens, Jurkat, Table 2) [nM] | IC50 (HT-29; Homo sapiens, HT-29, Table 2) [nM] | Compound | further results
178 to 180 | – | – | – | – | – | 300 ± 60 | 190 ± 60 | 800 ± 260 | 290 ± 60 | 220 ± 40 | Cc1ccc(CNc2nc3nc(C)cc(Nc4ccc(F)c(Cl)c4)n3n2)cc1 [Compound 8d, N^7-(3-Chloro-4-fluorophenyl)-N^2-(4-methylbenzyl)-5-methyl-[1,2,4]triazolo [1,5-a]pyrimidine-2,7-diamine] | fold reduction in activity vs 7p ([1]; all cell lines): 1.5–3 fold
168 to 170 | – | – | – | – | – | 650 ± 280 | 160 ± 70 | 600 ± 210 | 200 ± 50 | 260 ± 100 | Cc1cc(Nc2ccc(F)cc2)n2nc(NCc3ccc4c(c3)OCO4)nc2n1 [Compound 8g, N^2-(Benzo[d][1,3]dioxol-5-ylmethyl)-N^7-(4-fluorophenyl)-5-methyl-[1,2,4]triazolo [1,5-a]pyrimidine-2,7-diamine] | fold reduction in potency (vs 7y) [1]: 2–3 fold; fold increase in activity relative to 7ad (Jurkat): 3-4 fold
156 to 158 | – | – | – | – | – | 810 ± 220 | 190 ± 120 | 940 ± 340 | 280 ± 50 | 600 ± 160 | Cc1cc(Nc2ccc(Cl)cc2)n2nc(NCc3ccc4c(c3)OCO4)nc2n1 [Compound 8i, N^2-(Benzo[d][1,3]dioxol-5-ylmethyl)-N^7-(4-chlorophenyl)-5-methyl-[1,2,4]triazolo [1,5-a]pyrimidine-2,7-diamine] | fold reduction in potency (vs 7y) [1]: 2–3 fold; fold increase in activity relative to 7ad (Jurkat): 3-4 fold
182 to 184 | – | – | – | – | – | 430 ± 180 | 220 ± 40 | 1270 ± 450 | 260 ± 50 | 420 ± 20 | Cc1cc(Nc2ccc(Br)cc2)n2nc(NCc3ccc4c(c3)OCO4)nc2n1 [Compound 8l, N^2-(Benzo[d][1,3]dioxol-5-ylmethyl)-N^7-(4-bromophenyl)-5-methyl-[1,2,4]triazolo [1,5-a]pyrimidine-2,7-diamine] | fold reduction in potency (vs 7y) [1]: 2–3 fold; fold increase in activity relative to 7ad (Jurkat): 3-4 fold
186 to 188 | – | – | – | – | – | 440 ± 50 | 160 ± 90 | 700 ± 160 | 980 ± 60 | 300 ± 30 | Cc1cc(Nc2ccc(F)c(Cl)c2)n2nc(NCc3ccc4c(c3)OCO4)nc2n1 [Compound 8f, N^2-(Benzo[d][1,3]dioxol-5-ylmethyl)-N^7-(3-chloro-4-fluorophenyl)-5-methyl-[1,2,4]triazolo [1,5-a]pyrimidine-2,7-diamine] | fold reduction in potency (vs 7y) [1]: 2–3 fold; fold increase in activity relative to 7ad (Jurkat): 3-4 fold
